Assay results: patent US11187705B2, “Method for labeling specifically living microorganisms comprising the use of modified monosaccharide compounds” (CENTRE NATIONAL DE LA RECHERCHE SCIENTIFIQUE (CNRS), priority 2015, dated 2021)

Legend:
Format in all cases: cell-based
[1] = tested on: Serratia marcescens (first entry); conditions: 10 mM, 24 hours; first Serratia marcescens line (Table 1 order: CIP 102446)
Micrococcus luteus = conditions: for labeling (fluorescence, metabolic incorporation of the chemical reporter): 10 mM, 24 hours, Laboratory strain; for assimilation by the microorganism (in words): Micrococcus luteus
[2] = tested on: Pseudomonas fluorescens Paris; conditions: 10 mM, 24 hours; Laboratory strain
Escherichia coli O86 = conditions: 10 mM, 24 hours; Laboratory strain
Acinetobacter baumannii = conditions: 10 mM, 24 hours; ATCC 17978
Candida albicans = conditions: for labeling (fluorescence, metabolic incorporation of the chemical reporter): 10 mM, 24 hours, Laboratory strain; for assimilation by the microorganism (in words): Candida albicans
Enterococcus faecalis = conditions: for labeling (fluorescence, metabolic incorporation of the chemical reporter): 10 mM, 24 hours, Laboratory strain; for assimilation by the microorganism (in words): Enterococcus faecalis
Staphylococcus aureus = conditions: for labeling (fluorescence, metabolic incorporation of the chemical reporter): 10 mM, 24 hours, Clinical strain; for assimilation by the microorganism (in words): Staphylococcus aureus
Providencia stuartii = conditions: 10 mM, 24 hours; Clinical strain
Streptococcus agalactiae = conditions: 10 mM, 24 hours; Clinical strain
[3] = tested on: Staphylococcus saprophyticus; conditions: 10 mM, 24 hours; Clinical strain
[4] = tested on: Stenotrophomonas maltophilia; conditions: 10 mM, 24 hours; Clinical strain
[5] = tested on: Bacillus cereus (first entry); conditions: 10 mM, 24 hours; first Bacillus cereus line (Table 1 order: Laboratory strain)
Neisseria meningitides = conditions: 10 mM, 24 hours; CIP 107858
[6] = tested on: Listeria monocytogenes 1/2; conditions: for labeling (fluorescence, metabolic incorporation of the chemical reporter): 10 mM, 24 hours, CIP 82.110pT; for assimilation by the microorganism (in words): Listeria monocytogenes
[7] = tested on: Salmonella typhimurium 12023; conditions: 10 mM, 24 hours; Laboratory strain
Bacillus cereus paris = conditions: 10 mM, 24 hours; Laboratory strain
Bacillus subtilis = conditions: for labeling (fluorescence, metabolic incorporation of the chemical reporter): 10 mM, 24 hours, Laboratory strain; for assimilation by the microorganism (in words): Bacillus subtilis
Aspergillus niger = conditions: for labeling (fluorescence, metabolic incorporation of the chemical reporter): 10 mM, 24 hours, Laboratory strain; for assimilation by the microorganism (in words): Aspergillus niger
[8] = tested on: bacteria and Fungi as well as amoebas; assay: Labeling of living microorganisms, overall statement on all tested strains; conditions: broad range of bacteria and Fungi as well as amoebas
Vibrio cholerae = conditions: 10 mM, 24 hours; CIP 104151
[9] = tested on: Acanthamoebae castellanii; conditions: for labeling (fluorescence, metabolic incorporation of the chemical reporter): 10 mM, 24 hours, ATCC 30234; for assimilation by the microorganism (in words): Acanthamoebae castellanii
[10] = tested on: Legionella pneumophila sg1 Paris; conditions: 10 mM, 24 hours; CIP 33152
Geotrichum candidum = conditions: for labeling (fluorescence, metabolic incorporation of the chemical reporter): 10 mM, 24 hours, CNCM 1447-83; for assimilation by the microorganism (in words): Geotrichum candidum
[11] = tested on: Legionella pneumophila sg6; conditions: 10 mM, 24 hours; LG 0846 3022
[12] = tested on: Bacillus cereus (second entry); conditions: 10 mM, 24 hours; second Bacillus cereus line (Table 1 order: CIP 66.24T)
Staphylococcus epidermis = conditions: for labeling (fluorescence, metabolic incorporation of the chemical reporter): 10 mM, 24 hours, Laboratory strain
Proteus mirabills = conditions: 10 mM, 24 hours; Clinical strain
Neisseria gonorrhoeae = conditions: for labeling (fluorescence, metabolic incorporation of the chemical reporter): 10 mM, 24 hours, CIP 79.18T; for assimilation by the microorganism (in words): Neisseria gonorrhoeae
[13] = tested on: Staphylococcus aureus aureus; conditions: for labeling (fluorescence, metabolic incorporation of the chemical reporter): 10 mM, 24 hours, IP 53-156; for assimilation by the microorganism (in words): Staphylococcus aureus aureus
Cronobacter sakazakii = conditions: 10 mM, 24 hours; CIP 103183T
[14] = tested on: Serratia marcescens (second entry); conditions: 10 mM, 24 hours; second Serratia marcescens line (Table 1 order: Clinical strain)
Enterococcus durans = conditions: 10 mM, 24 hours; Laboratory strain
Fusarium = conditions: for labeling (fluorescence, metabolic incorporation of the chemical reporter): 10 mM, 24 hours, CNCM 1149-76; for assimilation by the microorganism (in words): Fusarium
[15] = tested on: Klebsiella pneumoniae (first entry); conditions: 10 mM, 24 hours; first Klebsiella pneumoniae line (Table 1 order: CIP 101114)
Escherichia coli K12 = conditions: 10 mM, 24 hours; MG1655
[16] = tested on: Klebsiella pneumoniae (second entry); conditions: 10 mM, 24 hours; second Klebsiella pneumoniae line (Table 1 order: Clinical strain)

[N-]=[N+]=NC[C@H]1OC(O)[C@@H](O)[C@@H]1O (stereo partly drawn) [Ara-N3, 5-Azido-5-deoxy-D-arabinofuranose]
labeling (fluorescence, metabolic incorporation of the chemical reporter) [1]: +
labeling (fluorescence, metabolic incorporation of the chemical reporter) (Micrococcus luteus): +
assimilation by the microorganism (in words) (Micrococcus luteus): assimilated
labeling (fluorescence, metabolic incorporation of the chemical reporter) [2]: +
labeling (fluorescence, metabolic incorporation of the chemical reporter) (Escherichia coli O86): +
labeling (fluorescence, metabolic incorporation of the chemical reporter) (Acinetobacter baumannii): +
labeling (fluorescence, metabolic incorporation of the chemical reporter) (Candida albicans): +
assimilation by the microorganism (in words) (Candida albicans): assimilated
labeling (fluorescence, metabolic incorporation of the chemical reporter) (Enterococcus faecalis): +
assimilation by the microorganism (in words) (Enterococcus faecalis): assimilated
labeling (fluorescence, metabolic incorporation of the chemical reporter) (Staphylococcus aureus): +
assimilation by the microorganism (in words) (Staphylococcus aureus): assimilated
labeling (fluorescence, metabolic incorporation of the chemical reporter) (Providencia stuartii): +
labeling (fluorescence, metabolic incorporation of the chemical reporter) (Streptococcus agalactiae): +
labeling (fluorescence, metabolic incorporation of the chemical reporter) [3]: +
labeling (fluorescence, metabolic incorporation of the chemical reporter) [4]: +
labeling (fluorescence, metabolic incorporation of the chemical reporter) [5]: +
labeling (fluorescence, metabolic incorporation of the chemical reporter) (Neisseria meningitides): +
labeling (fluorescence, metabolic incorporation of the chemical reporter) [6]: +
assimilation by the microorganism (in words) [6]: assimilated
labeling (fluorescence, metabolic incorporation of the chemical reporter) [7]: +
labeling (fluorescence, metabolic incorporation of the chemical reporter) (Bacillus cereus paris): +
labeling (fluorescence, metabolic incorporation of the chemical reporter) (Bacillus subtilis): +
assimilation by the microorganism (in words) (Bacillus subtilis): assimilated
labeling (fluorescence, metabolic incorporation of the chemical reporter) (Aspergillus niger): +
assimilation by the microorganism (in words) (Aspergillus niger): assimilated
labeling of all tested microorganisms (in words) [8]: all tested microorganisms were labeled
labeling (fluorescence, metabolic incorporation of the chemical reporter) (Vibrio cholerae): +
labeling (fluorescence, metabolic incorporation of the chemical reporter) [9]: +
assimilation by the microorganism (in words) [9]: assimilated
labeling (fluorescence, metabolic incorporation of the chemical reporter) [10]: +
labeling (fluorescence, metabolic incorporation of the chemical reporter) (Geotrichum candidum): +
assimilation by the microorganism (in words) (Geotrichum candidum): assimilated
labeling (fluorescence, metabolic incorporation of the chemical reporter) [11]: +
labeling (fluorescence, metabolic incorporation of the chemical reporter) [12]: +
labeling (fluorescence, metabolic incorporation of the chemical reporter) (Staphylococcus epidermis): +
labeling (fluorescence, metabolic incorporation of the chemical reporter) (Proteus mirabills): +
labeling (fluorescence, metabolic incorporation of the chemical reporter) (Neisseria gonorrhoeae): +
assimilation by the microorganism (in words) (Neisseria gonorrhoeae): assimilated
labeling (fluorescence, metabolic incorporation of the chemical reporter) [13]: +
assimilation by the microorganism (in words) [13]: assimilated
labeling (fluorescence, metabolic incorporation of the chemical reporter) (Cronobacter sakazakii): +
labeling (fluorescence, metabolic incorporation of the chemical reporter) [14]: +
labeling (fluorescence, metabolic incorporation of the chemical reporter) (Enterococcus durans): +
labeling (fluorescence, metabolic incorporation of the chemical reporter) (Fusarium): +
assimilation by the microorganism (in words) (Fusarium): assimilated
labeling (fluorescence, metabolic incorporation of the chemical reporter) [15]: +
labeling (fluorescence, metabolic incorporation of the chemical reporter) (Escherichia coli K12): +
labeling (fluorescence, metabolic incorporation of the chemical reporter) [16]: +

[N-]=[N+]=NC[C@@H](O)C1OC(O)(C(=O)O)CC(O)[C@H]1O (some centres unmarked) [Kdo-N3, reference compound]
labeling (fluorescence, metabolic incorporation of the chemical reporter) [1]: +
labeling (fluorescence, metabolic incorporation of the chemical reporter) (Micrococcus luteus): −
assimilation by the microorganism (in words) (Micrococcus luteus): did not assimilate
labeling (fluorescence, metabolic incorporation of the chemical reporter) [2]: +
labeling (fluorescence, metabolic incorporation of the chemical reporter) (Escherichia coli O86): +
labeling (fluorescence, metabolic incorporation of the chemical reporter) (Acinetobacter baumannii): +
labeling (fluorescence, metabolic incorporation of the chemical reporter) (Candida albicans): −
assimilation by the microorganism (in words) (Candida albicans): did not assimilate
labeling (fluorescence, metabolic incorporation of the chemical reporter) (Enterococcus faecalis): −
assimilation by the microorganism (in words) (Enterococcus faecalis): did not assimilate
labeling (fluorescence, metabolic incorporation of the chemical reporter) (Staphylococcus aureus): −
assimilation by the microorganism (in words) (Staphylococcus aureus): did not assimilate
labeling (fluorescence, metabolic incorporation of the chemical reporter) (Providencia stuartii): +
labeling (fluorescence, metabolic incorporation of the chemical reporter) [4]: +
labeling (fluorescence, metabolic incorporation of the chemical reporter) (Neisseria meningitides): +
labeling (fluorescence, metabolic incorporation of the chemical reporter) [6]: −
assimilation by the microorganism (in words) [6]: did not assimilate
labeling (fluorescence, metabolic incorporation of the chemical reporter) [7]: +
labeling (fluorescence, metabolic incorporation of the chemical reporter) (Bacillus subtilis): −
assimilation by the microorganism (in words) (Bacillus subtilis): did not assimilate
labeling (fluorescence, metabolic incorporation of the chemical reporter) (Aspergillus niger): −
assimilation by the microorganism (in words) (Aspergillus niger): did not assimilate
labeling (fluorescence, metabolic incorporation of the chemical reporter) (Vibrio cholerae): +
labeling (fluorescence, metabolic incorporation of the chemical reporter) [9]: −
assimilation by the microorganism (in words) [9]: did not assimilate
labeling (fluorescence, metabolic incorporation of the chemical reporter) [10]: +
labeling (fluorescence, metabolic incorporation of the chemical reporter) (Geotrichum candidum): −
assimilation by the microorganism (in words) (Geotrichum candidum): did not assimilate
labeling (fluorescence, metabolic incorporation of the chemical reporter) [11]: +
labeling (fluorescence, metabolic incorporation of the chemical reporter) (Staphylococcus epidermis): −
assimilation by the microorganism (in words) (Staphylococcus epidermis; Staphylococcus epidermis): did not assimilate
labeling (fluorescence, metabolic incorporation of the chemical reporter) (Proteus mirabills): +
labeling (fluorescence, metabolic incorporation of the chemical reporter) (Neisseria gonorrhoeae): −
assimilation by the microorganism (in words) (Neisseria gonorrhoeae): did not assimilate
labeling (fluorescence, metabolic incorporation of the chemical reporter) [13]: −
assimilation by the microorganism (in words) [13]: did not assimilate
labeling (fluorescence, metabolic incorporation of the chemical reporter) (Cronobacter sakazakii): +
labeling (fluorescence, metabolic incorporation of the chemical reporter) [14]: +
labeling (fluorescence, metabolic incorporation of the chemical reporter) (Fusarium): −
assimilation by the microorganism (in words) (Fusarium): did not assimilate
labeling (fluorescence, metabolic incorporation of the chemical reporter) [15]: +
labeling (fluorescence, metabolic incorporation of the chemical reporter) (Escherichia coli K12): +
labeling (fluorescence, metabolic incorporation of the chemical reporter) [16]: +
